Counter-ions that a name gives are not always drawn. Like-named read-outs stand apart in the source and are kept apart here.

The subject of assay [1] is G. lamblia WBC6 trophozoites. Description: G. lamblia trophozoite proliferation assay (resazurin). To be noted: for EC50: G. lamblia WBC6 trophozoites, 72 h anaerobic culture, read-out: Giardia cells EC50; for Effect on Giardia trophozoite proliferation: 50 μM inhibitor, 72 h culture, Fig 3B. It is filed as cell-based, Giardia lamblia. Here is the method:
G. lamblia WBC6 (ATCC catalogue number 50803) trophozoites were grown under microaerophilic conditions in 11 ml culture tubes (Nunc, cat. 156758) containing TYI-S- 33 medium supplemented with 10% bovine serum and bovine bile according to standard protocols. Parasites were harvested by chilling the tubes on ice for 30 minutes to detach adherent cells and collected by centrifugation (900 x g, 10 minutes, 4°C). Encystation was induced using the two-step method as described previously by cultivating the trophozoites in bile-free medium for 44 hours and thereafter in medium (pH 7.85) containing porcine bile.
Test compounds were dissolved in DMSO and serially diluted in Giardia culture medium. G. lamblia WBC6 trophozoites were grown until adherent cells reached a confluency close to 100%. Cells were then chilled on ice for 20 min and adherent parasites were detached from the culture tube. Cultures were diluted to 5x10^3 cells/ml in growth medium (room temperature) and 100 μl aliquots were immediately added to wells of 96-well plates preloaded with the same volume of test compound dilutions. DMSO (solvent) controls were always included. Plates were incubated for 72 h at 37°C in a humid chamber with an anaerobic atmosphere. Adherent cells were then washed twice with 200 μl PBS before adding 200 μl of PBS containing […] resazurin and 1% glucose. After incubation for 4 h at 37°C, plates were read on a fluorescence plate reader (Wallac 1420 VICTOR^2, PerkinElmer) with excitation and emission wavelengths of 544 nm and 590 nm, respectively. Data were analyzed with the GraphPad Prism software package using a sigmoidal dose-response model for regression. All assays were done in quadruplicate and at least three independent experiments were performed.
(Alamar Blue is a resazurin reagent that responds to reducing activity.)

The target of assay [2] is recombinant GlPDE(aa588-1371) (Giardia intestinalis, UniProt A0A644EZ75). Description: biochemical. It is filed as biochemical. To be noted: for Activity against recombinant GlPDE in profiling assay: inhibitor at 100 μM, Fig 3A. From the text: The DNA sequence comprising the catalytic domain (residues Gly-983 –Glu-1371) was amplified by PCR using genomic DNA of G. lamblia WBC6 and the primer pair GlPDE1cat-for (5'-[…]-3') and GlPDE1cat-rev (5'-[…]-3'). The PCR product was then cloned into the TA vector pCRII-TOPO (Invitrogen) yielding plasmid pCR-GlPDE1cat. To get a plasmid containing the sequence coding for the full length protein lacking the N-terminal transmembrane helices (Met-588 –Glu-1371) of GlPDE, a further PCR product was produced using the primer pair GlPDE1-Mfor (5'-[…]-3') and GlPDE1-LMrev (5'-[…]-3') and was cloned via NdeI (bold) and BsrGI into pCR-GlPDE1cat resulting in plasmid pCR-GlPDE1M. The inserts of both plasmid constructs were verified by sequencing and subcloned into two variants of the yeast expression vector pLT1 [42] using the restriction enzymes SalI (italic)/EcoRV or NdeI (bold)/EcoRV. The EcoRV cloning site originated from the multiple cloning site of the pCRII-TOPO vector. One pLT1 variant directs the expression of the Giardia protein alone, whereas the other adds an N-terminal hemagglutinin (HA) tag to allow detection of the recombinant protein. Transformation of the constructs into the PDE-deficient S. cerevisiae strain PP5 (MATa leu2-3 leu2- 112 ura3-52 his3-532 his4 cam pde1::URA3 pde2::HIS3) was carried out as described previously.
Yeast cell pellets were created exactly as described previously. Briefly, yeast was grown at 30°C in SC-leu medium to end log phase and thereafter again for 3.5 h in YPD to maximize protein expression. Washed cells were frozen in liquid nitrogen and stored at -70°C. Frozen cell pellets were thawed on ice and resuspended in an equal volume of ice-cold extraction buffer (50 mM HEPES, pH 7.5, 100 mM NaCl, 1x Complete protease inhibitor cocktail without EDTA (Roche Applied Science)). Cell lysates were produced by three passages through a high pressure homogenizer (French press at 20’000 psi, 4°C). Unbroken cells and cell debris were removed by centrifugation for 20 min at 16’000 RCF at 4°C. 25% glycerol was added to the cleared supernatant. Aliquots were snap-frozen in liquid nitrogen and stored at -70°C for subsequent PDE activity assays.
PDE activity was determined by a modification of the two-step procedure of Thompson and Appleman as described previously. In all reactions no more than 20% of the substrate was hydrolyzed. […] Inhibitors were dissolved and diluted in dimethyl sulfoxide (DMSO), with 1% final DMSO concentration in the reaction mixes. Control reactions with DMSO alone were always included. Data were analyzed using the GraphPad Prism software package (GraphPad, San Diego).

The subject of a further assay is TbrPDEB1 and TbrPDEB2. Details: method as in PMID 22291195, PMID 22963052. To be noted: cited from earlier work.

For the compound `OCCN(CCO)c1nc(N2CCCCC2)c2nc(N(CCO)CCO)nc(N3CCCCC3)c2n1` [Dipyridamole, dipyridamole], in assay [1] (Giardia duodenalis), the EC50 (as a rule, the concentration giving half of the maximal effect) is greater than 50 µM. In addition, in assay [2], the IC50 (commonly the point on the concentration scale where inhibition reaches its midpoint) was found to be 26.3 µM and the “Activity against recombinant GlPDE in profiling assay” value (“Activity against recombinant GlPDE” for short) is recorded as “showed promising activity against GlPDE”.

Consider `COc1ccc(C(=O)Nc2c(Cl)cncc2Cl)cc1OC1CCCC1` [Piclamilast, piclamilast], for which the “Effect on Giardia trophozoite proliferation” value (“Effect” for short) in assay [1] is “also inhibited Giardia trophozoite proliferation”. Moreover, the concentration giving a half-maximal response (EC50) in assay [1] (Giardia duodenalis) amounted to 12 µM. Further, in assay [2], the IC50 came out at 11.3 µM and the “Activity against recombinant GlPDE” value is “showed promising activity against GlPDE”.

Regarding `CC(C)Cn1c(=O)n(C)c(=O)c2[nH]cnc21` [IBMX, isobutyl-methyl-xanthine], the EC50 in assay [1] (Giardia duodenalis) is greater than 50 µM. In addition, in assay [2] (read-out: Giardia PDE IC50), the IC50 was greater than 100 µM.

Consider `COc1ccc(C2CNC(=O)C2)cc1OC1CCCC1` (stereo not drawn) [Rolipram, rolipram], for which the EC50 in assay [1] (Giardia duodenalis) is greater than 50 µM. Further, in assay [2] (read-out: Giardia PDE IC50), the IC50 was greater than 100 µM.

For the compound `CCOC(=O)c1cnc2c(cnn2CC)c1NN=C(C)C` [Etazolate, etatolate], the EC50 in assay [1] (Giardia duodenalis) was greater than 50 µM. For the same compound, in assay [2] (read-out: Giardia PDE IC50), the IC50 was roughly 100 µM.

As for `CCCOc1ccccc1-c1nc2nn[nH]c2c(=O)[nH]1` [Zaprinast, zaprinast], the concentration giving a half-maximal response (EC50) in assay [1] (Giardia duodenalis) is greater than 50 µM. Moreover, the IC50 in assay [2] (read-out: Giardia PDE IC50) was greater than 100 µM.

With `Nc1nc2c(ncn2[C@@H]2O[C@@H]3COP(=O)(O)O[C@H]3[C@H]2O)c(=O)[nH]1` [cGMP], the “Acceptance as substrate by GlPDE” value in assay [2] (recombinant GlPDE(aa588-1371)) is reported as “does not accept cGMP as a substrate”.

Turning to `COCc1nc2c([nH]1)c(=O)n(C)c(=O)n2CC(C)C` [8'-MM-IBMX, 8-methoxymethyl-IBMX], the EC50 in assay [1] was greater than 50 µM. Further, the IC50 in assay [2] (read-out: Giardia PDE IC50) was greater than 100 µM.

As to `CCCCCC[C@@H]([C@@H](C)O)n1cnc2c(N)ncnc21` (racemic) [EHNA, erythro-9-(2-hydroxy-3-nonyl)adenine], the EC50 in assay [1] is greater than 50 µM. The IC50 in assay [2] (read-out: Giardia PDE IC50) is greater than 100 µM.

As for `CN1CC(=O)N2[C@H](c3ccc4c(c3)OCO4)c3[nH]c4ccccc4c3C[C@@H]2C1=O` [Tadalafil, tadalafil], in assay [1] (Giardia duodenalis), the EC50 was greater than 50 µM. Moreover, in assay [2] (read-out: Giardia PDE IC50), the IC50 is greater than 100 µM.

Turning to `COc1cc2ncnc(N3CC[C@@H](Oc4cnc5ccccc5n4)C3)c2cc1OC` [NEU28], in assay [1], the EC50 stood at 30.6 µM. Besides, the IC50 in assay [2] (read-out: Giardia PDE IC50) is roughly 100 µM.

With `COc1cc(-c2ccc(=O)[nH]n2)ccc1OC(F)F` [Zardaverine, zardaverine], the EC50 in assay [1] (Giardia duodenalis) is greater than 50 µM. For the same compound, the IC50 in assay [2] is greater than 100 µM.

For `CCCc1nn(C)c2c(=O)[nH]c(-c3cc(S(=O)(=O)N4CCN(C)CC4)ccc3OCC)nc12` [Sildenafil, sildenafil citrate], in assay [1] (Giardia duodenalis), the EC50 was greater than 50 µM. Moreover, the IC50 in assay [2] was greater than 100 µM.

With `C[C@H](Cc1nc2c(cnn2-c2ccccc2Cl)c(=O)[nH]1)C(F)(F)F` [BAY 73–6691], the EC50 in assay [1] was greater than 50 µM. The IC50 in assay [2] (read-out: Giardia PDE IC50) was greater than 100 µM.

As for `O=C(Nc1c(Cl)cncc1Cl)c1ccc(OC(F)F)c(OCC2CC2)c1` [Roflumilast, roflumilast], the “Effect” value in assay [1] is “also inhibited Giardia trophozoite proliferation”. Also, the EC50 in assay [1] (Giardia duodenalis) turned out to be 7.4 µM. In assay [2], the IC50 was found to be 6 µM and the “Activity against recombinant GlPDE” value is listed as “showed promising activity against GlPDE”.

As for `Cc1ccc([N+](=O)[O-])cc1S(=O)(=O)N(C)C` [BRL 50481], in assay [2] (read-out: Giardia PDE IC50), the IC50 was greater than 100 µM.

On to `COc1cc2c(cc1OC)-c1c/c(=N\c3c(C)cc(C)cc3C)n(C)c(=O)n1CC2` [Trequinsin, trequinsin], for which the EC50 in assay [1] (Giardia duodenalis) is greater than 50 µM. In addition, the IC50 in assay [2] was greater than 100 µM.

`CCCCOc1cc(CC2CNC(=O)N2)ccc1OC` (stereo not drawn) [Ro20-1724]: the EC50 in assay [1] was greater than 50 µM. Besides, the IC50 in assay [2] (read-out: Giardia PDE IC50) is greater than 100 µM.

Take `CCOC(=O)C1=C[C@]2(CC)CCCN3CCc4c(n1c1ccccc41)[C@@H]32` [Vinpocetine, vinpocetine]: in assay [1] (Giardia duodenalis), the EC50 worked out at 16.3 µM. In addition, the IC50 in assay [2] is greater than 100 µM.

Consider `CN(C(=O)CCCOc1ccc2[nH]c(=O)ccc2c1)C1CCCCC1` [Cilostamide, cilostamide], for which, in assay [1] (Giardia duodenalis), the EC50 is greater than 50 µM. For the same compound, the IC50 in assay [2] (read-out: Giardia PDE IC50) was greater than 100 µM.

For `Cc1[nH]c(=O)c(C#N)cc1-c1ccncc1` [Milrinone, milrinone], the EC50 in assay [1] (Giardia duodenalis) is greater than 50 µM. In assay [2], the IC50 was greater than 100 µM.

On to `COc1ccc(Cc2nccc3cc(OC)c(OC)cc23)cc1OC` [Papaverine, papaverine], for which the 50% effective concentration (EC50) in assay [1] (Giardia duodenalis) is greater than 50 µM. The IC50 in assay [2] was greater than 100 µM.

For the compound `COc1ccc(C2=NN(C3CCCCCC3)C(=O)[C@@H]3CC=CC[C@H]23)cc1OCCCCOc1ccc(-c2nn[nH]n2)cc1` [NPD-001], in the assay on TbrPDEB1 and TbrPDEB2, the “Potency against trypanosomal PDEs” value is reported as “potencies in the nanomolar range”. Moreover, in assay [1], the “Effect” value is “also inhibited Giardia trophozoite proliferation” and the concentration for a half-maximal effect (EC50) came to 6.9 µM. Further, the “Activity against recombinant GlPDE” value in assay [2] is given as “showed promising activity against GlPDE”. For the same compound, the IC50 in assay [2] (read-out: Giardia PDE IC50) stood at 0.8 µM.

Take `CC(=O)CCCCn1c(=O)c2c(ncn2C)n(C)c1=O` [Pentoxifylline, pentoxifylline]: in assay [1] (Giardia duodenalis), the EC50 is greater than 50 µM.

As to `COc1ccc(Cc2nn3c([C@@H](CCCc4ccccc4)[C@@H](C)O)nc(C)c3c(=O)[nH]2)cc1OC` [BAY 60–7550], the EC50 in assay [1] was roughly 50 µM.

Values taken from article PMC5617230, “The single cyclic nucleotide-specific phosphodiesterase of the intestinal parasite Giardia lamblia represents a potential drug target” (PLoS Neglected Tropical Diseases, 2017).
